What was measured:
[1] = test system: cortical neurons; test: Polarization of somal lipid raft microdomains (CTx-B staining) in cultured cortical neurons; assay type: cell-based, mouse; conditions: for inhibition of lipid raft / microdomain polarization: treatment of cortical cultures, neurotoxic insult not specified; for percentage of neurons with polarized raft microdomains: cholesterol-depleted vs control neurons; for inhibition of lipid raft polarization: FIG. 3, 25 μM A-beta 25-35 peptide and 300 μM NMDA
[2] = test system: cortical neurons; test: Neuronal death by LDH release assay (and chromatin fragmentation, FIG. 3) after neurotoxic exposure; assay type: cell-based, mouse; conditions: for effect of co-treatment on neuroprotection by statins: co-treatment with HMG-CoA reductase inhibitor
[3] = test system: cortical neurons; test: Chromatin integrity (DAPI): nuclei with condensed and fragmented chromatin; assay type: cell-based, mouse; conditions: cholesterol-depleted vs control neurons
[4] = active form of mevastatin; cited from earlier work
[5] = three hours following 20 μM Aβ 25-35

## C[N+](C)(C)CC(O)CC(=O)[O-] (stereo not shown) [carnitine]
[1]
  inhibition of lipid raft / microdomain polarization: inhibit raft polarization

## CC(C)CCC[C@@H](C)[C@H]1CC[C@H]2[C@@H]3CC=C4C[C@@H](O)CC[C@]4(C)[C@H]3CC[C@]12C [cholesterol]
[2]; 5 μM cholesterol co-incubated with mevastatin, or 2 mM cholesterol complexed with 2.5% βCD for 15 min after 1% βCD, 20 μM Aβ 25-35 or NMDA
  effect on cholesterol depletion induced resistance to neuronal death (LDH release): prevented
[2]
  effect of co-treatment on neuroprotection by statins: substantially attenuated

## C=C1[C@@H](C)[C@H]2[C@H](Cc3ccccc3)NC(=O)[C@]23[C@H](OC(C)=O)/C=C/[C@@](C)(O)C(=O)[C@@H](C)C/C=C/[C@H]3[C@@H]1O [cytochalasin D]
[1]
  inhibition of lipid raft / microdomain polarization: prevents the polarization of lipid microdomains

## CC(O)(CCO)CC(=O)O (stereo not shown) [mevalonate]
[2]
  effect of co-treatment on neuroprotection by statins: substantially attenuated

## CC[C@H](C)C(=O)O[C@H]1CCC=C2C=C[C@H](C)[C@H](CC[C@@H]3C[C@@H](O)CC(=O)O3)[C@H]21 [mevastatin]
[1]; 1 h following 300 μM NMDA
  percentage of neurons with polarized raft microdomains: significantly lower
[1]
  inhibition of lipid raft polarization: inhibit lipid raft polarization
[1]; [5]
  percentage of neurons with polarized raft microdomains: significantly lower
[2]; 25 μM A-beta 25-35 peptide
  protection against neurotoxic exposure (LDH release assay and chromatin fragmentation): protect against neurotoxic exposure
[2]; 300 μM NMDA
  protection against neurotoxic exposure (LDH release assay and chromatin fragmentation): protect against neurotoxic exposure
[3]; 24 h following 300 μM NMDA
  percentage of neurons with condensed and fragmented chromatin: significantly lower
[3]; 48 h following 20 μM Aβ 25-35
  percentage of neurons with condensed and fragmented chromatin: significantly lower
[4]
  lipophilicity relative to simvastatin (times less lipophilic): approximately 8 times

## A-beta 25-35 peptide: beta-amyloid peptide fragment 25-35, neurotoxic stimulus (GSNKGAIIGLM; Amyloid-beta protein 42; UniProt P05067 696-706, looked up, fragment)
[1]; neurotoxic stimulus, FIG. 1B
  induction of raft microdomain polarization to a pole of the neuronal cell body: aggregation and polarization of raft microdomains

## latrunculins
[1]
  inhibition of lipid raft / microdomain polarization: prevents the polarization of lipid microdomains

## methyl-β-cyclodextrin [βCD]
[1]; 15 min exposure to 25 μM A-beta 25-35 peptide, 1 hr pre-treatment
  inhibition of raft polarization: inhibition of raft polarization
[1]; 1 h following 300 μM NMDA
  percentage of neurons with polarized raft microdomains: significantly lower
[1]
  inhibition of lipid raft polarization: inhibit lipid raft polarization
  inhibition of lipid raft / microdomain polarization: inhibits lipid raft polarization
[1]; [5]
  percentage of neurons with polarized raft microdomains: significantly lower
[2]; 25 μM A-beta 25-35 peptide
  protection against neurotoxic exposure (LDH release assay and chromatin fragmentation): protect against neurotoxic exposure
[2]; 300 μM NMDA
  protection against neurotoxic exposure (LDH release assay and chromatin fragmentation): protect against neurotoxic exposure
[2]; treatment of cortical cultures, insult not specified
  protection against neuronal death / neurotoxic insults: protects against neuronal death
[3]; 24 h following 300 μM NMDA
  percentage of neurons with condensed and fragmented chromatin: significantly lower
[3]; 48 h following 20 μM Aβ 25-35
  percentage of neurons with condensed and fragmented chromatin: significantly lower

— US10881694B2, “In vitro model for neuronal death” (priority 2003, dated 2021)
